In ChEMBL document CHEMBL3232987, “Investigation of Ugi-4CC derived 1H-tetrazol-5-yl-(aryl) methyl piperazinyl-6-fluoro-4-oxo-1,4-dihydroquinoline-3-carboxylic acid: synthesis, biology and 3D-QSAR analysis” (Eur J Med Chem, 2014):
≈ marks a conversion by molar mass, not a printed value.

Assays:
Staphylococcus aureus [1] = assay: Antibacterial activity against methicillin-resistant Staphylococcus aureus ATCC 700699 by NCCLS two-fold dilution method; type: functional
Staphylococcus aureus [2] = assay: Antibacterial activity against methicillin-resistant Staphylococcus aureus ATCC 700699 after 24 hrs by spectrophotometric analysis; type: functional, organism-based; settings: Staphylococcus aureus, ATCC 700699, 24 h; for IC50: read-out: IC50
Staphylococcus aureus [3] = assay: Antibacterial activity against Staphylococcus aureus ATCC 29213 by NCCLS two-fold dilution method; type: functional
Staphylococcus aureus [4] = assay: Antibacterial activity against Staphylococcus aureus ATCC 25923 after 24 hrs by spectrophotometric analysis; type: functional, organism-based; settings: Staphylococcus aureus, ATCC 25923, 24 h; for IC50: read-out: IC50
Staphylococcus aureus [5] = assay: Antibacterial activity against gentamicin-resistant Staphylococcus aureus ATCC 33592 by NCCLS two-fold dilution method; type: functional
Staphylococcus aureus [6] = assay: Antibacterial activity against Staphylococcus aureus ATCC 25923 by NCCLS two-fold dilution method; type: functional; settings: for MIC: Staphylococcus aureus, ATCC 25923
Staphylococcus aureus [7] = assay: Antibacterial activity against gentamicin-resistant Staphylococcus aureus ATCC 33592 after 24 hrs by spectrophotometric analysis; type: functional, organism-based; settings: Staphylococcus aureus, ATCC 33592, 24 h; for IC50: read-out: IC50
Staphylococcus aureus [8] = assay: Antibacterial activity against Staphylococcus aureus ATCC 29213 after 24 hrs by spectrophotometric analysis; type: functional, organism-based; settings: Staphylococcus aureus, ATCC 29213, 24 h; for IC50: read-out: IC50

| SMILES | MIC (Staphylococcus aureus [1]) [µg/mL] | MIC (Staphylococcus aureus [2]) [µg/mL] | IC50 (Staphylococcus aureus [2]) [µg/mL] | MIC (Staphylococcus aureus [3]) [µg/mL] | MIC (Staphylococcus aureus [4]) [µg/mL] | IC50 (Staphylococcus aureus [4]) [µg/mL] | MIC (Staphylococcus aureus [5]) [µg/mL] | -logMIC (Staphylococcus aureus [6]) | MIC (Staphylococcus aureus [6]) [µg/mL] | MIC (Staphylococcus aureus [7]) [µg/mL] | IC50 (Staphylococcus aureus [7]) [µg/mL] | MIC (Staphylococcus aureus [8]) [µg/mL] | IC50 (Staphylococcus aureus [8]) [µg/mL] |
| --- | --- | --- | --- | --- | --- | --- | --- | --- | --- | --- | --- | --- | --- |
| CC(C)(C)n1nnnc1C(c1ccccc1)N1CCN(c2cc3c(cc2F)c(=O)c(C(=O)O)cn3Cc2ccc(C(F)(F)F)cc2)CC1 (stereo not drawn) | 25 (≈ 37.7 µM) | 50 (≈ 75.3 µM) | 50 (≈ 75.3 µM) | 25 (≈ 37.7 µM) | 50 (≈ 75.3 µM) | 50 (≈ 75.3 µM) | 12.5 (≈ 18.8 µM) | 4.122 | 50 (≈ 75.3 µM) | 50 (≈ 75.3 µM) | 50 (≈ 75.3 µM) | 50 (≈ 75.3 µM) | 50 (≈ 75.3 µM) |
| O=C(O)c1cn(Cc2ccc(C(F)(F)F)cc2)c2cc(N3CCN(C(c4ccccc4)c4nnnn4C4CCCCC4)CC3)c(F)cc2c1=O (stereo not drawn) | > 50 | > 50 | > 50 | 6.25 (≈ 9.06 µM) | 17.5 (≈ 25.4 µM) | 5.2 (≈ 7.54 µM) | 25 (≈ 36.2 µM) | 4.741 | 12.5 (≈ 18.1 µM) | 40.5 (≈ 58.7 µM) | 21 (≈ 30.4 µM) | 4.4 (≈ 6.38 µM) | 2.2 (≈ 3.19 µM) |
| O=C(O)c1cn(Cc2ccc(C(F)(F)F)cc2)c2cc(N3CCN(C(c4cccc5ccccc45)c4nnnn4C4CCCCC4)CC3)c(F)cc2c1=O (stereo not drawn) | > 50 | > 50 | > 50 | > 50 | > 50 | 50 (≈ 67.6 µM) | > 50 | 4.169 | 50 (≈ 67.6 µM) | > 50 | > 50 | > 50 | > 50 |
| CC(C)(C)n1nnnc1C(c1ccncc1)N1CCN(c2cc3c(cc2F)c(=O)c(C(=O)O)cn3Cc2ccc(C(F)(F)F)cc2)CC1 (stereo not drawn) | 50 (≈ 75.2 µM) | 50 (≈ 75.2 µM) | 50 (≈ 75.2 µM) | 50 (≈ 75.2 µM) | 50 (≈ 75.2 µM) | 50 (≈ 75.2 µM) | 50 (≈ 75.2 µM) | 4.123 | 50 (≈ 75.2 µM) | 50 (≈ 75.2 µM) | 50 (≈ 75.2 µM) | 50 (≈ 75.2 µM) | 50 (≈ 75.2 µM) |
| CCn1cc(C(=O)O)c(=O)c2cc(F)c(N3CCN(C(c4ccc(F)cc4)c4nnnn4C4CCCCC4)CC3)cc21 (stereo not drawn) | 50 (≈ 86.6 µM) | 50 (≈ 86.6 µM) | 50 (≈ 86.6 µM) | 50 (≈ 86.6 µM) | 2.1 (≈ 3.64 µM) | 0.5 (≈ 0.866 µM) | 50 (≈ 86.6 µM) | 5.568 | 1.56 (≈ 2.7 µM) | 50 (≈ 86.6 µM) | 50 (≈ 86.6 µM) | > 50 | 50 (≈ 86.6 µM) |
| CC(C)c1ccc(C(c2nnnn2C2CCCCC2)N2CCN(c3cc4c(cc3F)c(=O)c(C(=O)O)cn4Cc3ccc(C(F)(F)F)cc3)CC2)cc1 (stereo not drawn) | > 50 | 50 (≈ 68.3 µM) | > 50 | > 50 | 50 (≈ 68.3 µM) | > 50 | > 50 | 4.165 | 50 (≈ 68.3 µM) | > 50 | 50 (≈ 68.3 µM) | > 50 | 50 (≈ 68.3 µM) |
| CCn1cc(C(=O)O)c(=O)c2cc(F)c(N3CCN(C(c4ccc(C(C)C)cc4)c4nnnn4C(C)(C)C)CC3)cc21 (stereo not drawn) | 50 (≈ 86.9 µM) | 50 (≈ 86.9 µM) | 50 (≈ 86.9 µM) | 50 (≈ 86.9 µM) | 50 (≈ 86.9 µM) | 50 (≈ 86.9 µM) | > 50 | 4.06 | 50 (≈ 86.9 µM) | 50 (≈ 86.9 µM) | > 50 | > 50 | 50 (≈ 86.9 µM) |
| COc1ccc(C(c2nnnn2C(C)(C)C)N2CCN(c3cc4c(cc3F)c(=O)c(C(=O)O)cn4Cc3ccc(C(F)(F)F)cc3)CC2)c(OC)c1OC (stereo not drawn) | 50 (≈ 66.3 µM) | 50 (≈ 66.3 µM) | 50 (≈ 66.3 µM) | 50 (≈ 66.3 µM) | 50 (≈ 66.3 µM) | 50 (≈ 66.3 µM) | 50 (≈ 66.3 µM) | 4.178 | 50 (≈ 66.3 µM) | 50 (≈ 66.3 µM) | 50 (≈ 66.3 µM) | 50 (≈ 66.3 µM) | 50 (≈ 66.3 µM) |
| CCn1cc(C(=O)O)c(=O)c2cc(F)c(N3CCN(C(c4ccc(C(C)C)cc4)c4nnnn4C4CCCCC4)CC3)cc21 (stereo not drawn) | 50 (≈ 83.1 µM) | 50 (≈ 83.1 µM) | 50 (≈ 83.1 µM) | 12.5 (≈ 20.8 µM) | 19 (≈ 31.6 µM) | 8 (≈ 13.3 µM) | 3.12 (≈ 5.19 µM) | 4.682 | 12.5 (≈ 20.8 µM) | 1.6 (≈ 2.66 µM) | 1.5 (≈ 2.49 µM) | 3.3 (≈ 5.48 µM) | 3.1 (≈ 5.15 µM) |
| CC(C)c1ccc(C(c2nnnn2C(C)(C)C)N2CCN(c3cc4c(cc3F)c(=O)c(C(=O)O)cn4Cc3ccc(C(F)(F)F)cc3)CC2)cc1 (stereo not drawn) | 3.12 (≈ 4.42 µM) | 1.6 (≈ 2.27 µM) | 1.4 (≈ 1.98 µM) | 6.25 (≈ 8.86 µM) | 3.12 (≈ 4.42 µM) | 1.8 (≈ 2.55 µM) | 3.12 (≈ 4.42 µM) | 4.149 | 3.12 (≈ 4.42 µM) | 0.87 (≈ 1.23 µM) | 0.8 (≈ 1.13 µM) | 3.1 (≈ 4.39 µM) | 1.5 (≈ 2.13 µM) |
| CCn1cc(C(=O)O)c(=O)c2cc(F)c(N3CCN(C(c4cccc5ccccc45)c4nnnn4C4CCCCC4)CC3)cc21 (stereo not drawn) | 25 (≈ 41 µM) | 8.2 (≈ 13.4 µM) | 3.7 (≈ 6.07 µM) | 6.25 (≈ 10.3 µM) | 1.4 (≈ 2.3 µM) | 0.77 (≈ 1.26 µM) | 3.12 (≈ 5.12 µM) | 5.29 | 3.12 (≈ 5.12 µM) | 4.2 (≈ 6.89 µM) | 1.6 (≈ 2.62 µM) | 2.9 (≈ 4.76 µM) | 1.6 (≈ 2.62 µM) |
